Data reported in paper PMC4527344 (Tetrahedron letters, 2015).
≈ marks a conversion by molar mass, not a printed value. Read-outs that look alike come from different tables or passages of the source.

Experiments:
[1] = Middlebrook 7H9 media supplemented with albumin, dextrose, and saline
M. tuberculosis H37Rv [2] = settings: cited from earlier work
M. tuberculosis H37Rv [3] = format: cell-based, Mycobacterium tuberculosis
M. tuberculosis = test: metabolomics: intramycobacterial accumulation and metabolism; format: cell-based, Mycobacterium tuberculosis; settings: dose-dependent
[4] = target: enoyl acyl-carrier protein reductase (InhA); settings: InhA enzymatic activity; cited from earlier work

In the case of `CCOC(=O)CSc1nc(N)c2c3c(sc2n1)CC(C(C)(C)C)CC3` (stereo not drawn) [CD117], the “stability in growth media” value [1] is listed as “stable”, the MIC (M. tuberculosis H37Rv [2]; M. tuberculosis H37Rv lab strain, previously reported) is listed as 0.39 µg/mL and the MIC (M. tuberculosis H37Rv [2]; M. tuberculosis H37Rv, 0.39 μg/mL expressed in μM) is listed as 1.0 µM. For the same compound, the MIC (M. tuberculosis H37Rv [3]) was 0.39 µg/mL (≈ 1.03 µM), the “permeation of the M. tuberculosis cell wall” value (M. tuberculosis) was “permeate the M. tuberculosis cell wall” and the IC50 [4] was 34 ± 6 µM.
